# Laboratory results reported in publication PMC9886279, “A choline-releasing glycerophosphodiesterase essential for phosphatidylcholine biosynthesis and blood stage development in the malaria parasite” (eLife, 2022).
# Target: T1, PfGDPD-HA (PfGDPD; glycerophosphodiesterase) (Plasmodium falciparum, UniProt Q8IM31)
# T1 construct: gene PF3D7_1406300; endogenous locus, recodonised segment 24-475 aa, C-terminal 3xHA tag kept; 475-residue precursor with N-terminal signal peptide
# Test: LC-MS/MS of GPC consumption and choline release by bead-bound affinity-purified enzyme
# Format: biochemical
# Details: enzyme immobilised on anti-HA beads; 100 mM HEPES pH 7.5, 150 mM NaCl, 10 mM MgCl2, 37°C; GPC 1 mM (Methods) or 10 mM (Figure 6 legend)
# T1 sequence (Q8IM31 entry or part of it): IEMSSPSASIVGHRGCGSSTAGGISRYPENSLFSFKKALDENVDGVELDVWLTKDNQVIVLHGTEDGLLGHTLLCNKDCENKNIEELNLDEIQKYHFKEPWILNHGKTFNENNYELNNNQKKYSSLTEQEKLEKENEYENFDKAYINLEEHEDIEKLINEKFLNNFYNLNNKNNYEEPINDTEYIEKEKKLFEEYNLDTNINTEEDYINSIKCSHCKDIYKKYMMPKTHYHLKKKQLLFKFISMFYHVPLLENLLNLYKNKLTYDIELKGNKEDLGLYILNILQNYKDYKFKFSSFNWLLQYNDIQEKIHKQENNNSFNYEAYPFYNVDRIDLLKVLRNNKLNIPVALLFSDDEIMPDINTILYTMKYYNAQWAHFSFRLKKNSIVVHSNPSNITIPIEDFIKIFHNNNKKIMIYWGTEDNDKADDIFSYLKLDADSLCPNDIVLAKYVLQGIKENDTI
smiles,measurement,value
C[N+](C)(C)CCOP(=O)([O-])OC[C@H](O)CO [GPC],LC-MS/MS of GPC consumption and choline release by bead-bound affinity-purified,resulted in the time-dependent appearance of choline with a concomitant decrease in GPC levels
